Legend:
[1] = biological target: Tyrosine-protein phosphatase non-receptor type 6 (Homo sapiens, UniProt P29350); test: Inhibition of SHP1 (unknown origin) expressed in Escherichia coli BL21(DE3) using pNPP as substrate preincubated for 15 mins followed by substrate addition measured after 10 mins
[2] = biological target: T1, Tyrosine-protein phosphatase non-receptor type 1 (Homo sapiens, UniProt P18031); test: Inhibition of PTP1B (unknown origin) expressed in Escherichia coli BL21(DE3) using pNPP as substrate preincubated for 15 mins followed by substrate addition measured after 10 mins
T1 sequence (P18031 whole entry): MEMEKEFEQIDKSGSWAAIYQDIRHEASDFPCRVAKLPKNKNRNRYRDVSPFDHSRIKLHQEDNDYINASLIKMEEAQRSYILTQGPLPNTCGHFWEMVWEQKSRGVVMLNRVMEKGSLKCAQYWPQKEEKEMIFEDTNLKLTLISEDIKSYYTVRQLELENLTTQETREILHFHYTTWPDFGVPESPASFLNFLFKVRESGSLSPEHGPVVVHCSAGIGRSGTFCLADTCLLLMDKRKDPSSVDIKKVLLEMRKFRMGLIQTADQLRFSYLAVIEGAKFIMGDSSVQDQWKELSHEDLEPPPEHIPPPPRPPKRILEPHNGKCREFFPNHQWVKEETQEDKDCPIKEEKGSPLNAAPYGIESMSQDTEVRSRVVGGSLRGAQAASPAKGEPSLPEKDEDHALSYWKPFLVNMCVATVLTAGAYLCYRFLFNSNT

[3] = biological target: T2, Tyrosine-protein phosphatase non-receptor type 2 (Homo sapiens, UniProt P17706); test: Inhibition of TCPTP (unknown origin) expressed in Escherichia coli BL21(DE3) using pNPP as substrate preincubated for 15 mins followed by substrate addition measured after 10 mins
T2 sequence (P17706 whole entry): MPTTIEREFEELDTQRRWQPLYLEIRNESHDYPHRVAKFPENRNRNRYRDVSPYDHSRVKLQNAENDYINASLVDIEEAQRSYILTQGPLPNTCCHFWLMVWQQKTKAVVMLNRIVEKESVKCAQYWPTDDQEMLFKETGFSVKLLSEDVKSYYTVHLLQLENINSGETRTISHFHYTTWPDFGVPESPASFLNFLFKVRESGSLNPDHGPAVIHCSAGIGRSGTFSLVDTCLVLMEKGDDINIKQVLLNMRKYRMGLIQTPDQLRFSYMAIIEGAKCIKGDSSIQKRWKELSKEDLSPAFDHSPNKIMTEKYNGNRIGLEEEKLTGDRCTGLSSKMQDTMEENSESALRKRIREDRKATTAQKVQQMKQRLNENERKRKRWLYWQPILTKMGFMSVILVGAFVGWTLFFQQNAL

Chain of Tyrosine-protein phosphatase non-receptor type 6 (P29350 whole entry): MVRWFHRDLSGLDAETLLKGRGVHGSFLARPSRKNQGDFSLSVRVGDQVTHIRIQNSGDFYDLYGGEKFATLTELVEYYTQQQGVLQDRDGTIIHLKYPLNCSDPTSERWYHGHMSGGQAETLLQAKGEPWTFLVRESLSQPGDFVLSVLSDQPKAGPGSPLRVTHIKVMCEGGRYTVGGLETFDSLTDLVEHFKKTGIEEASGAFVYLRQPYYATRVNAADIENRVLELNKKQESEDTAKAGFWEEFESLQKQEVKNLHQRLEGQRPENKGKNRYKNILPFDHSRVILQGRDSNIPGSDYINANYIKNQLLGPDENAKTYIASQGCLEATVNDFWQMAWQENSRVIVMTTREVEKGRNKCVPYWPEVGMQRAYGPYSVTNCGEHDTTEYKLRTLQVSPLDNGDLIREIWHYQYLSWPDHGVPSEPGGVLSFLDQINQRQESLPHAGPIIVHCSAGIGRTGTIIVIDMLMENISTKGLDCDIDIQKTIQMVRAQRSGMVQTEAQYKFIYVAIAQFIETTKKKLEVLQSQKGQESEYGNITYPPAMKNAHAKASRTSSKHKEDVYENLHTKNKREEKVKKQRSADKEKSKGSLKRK

C/C(=C\Cc1c(O)cc(O)c2c1C[C@@H](C)OC2=O)CC/C=C(\C)CC[C@H](O)C(C)(C)O
IC50 [1]: 8.8 µM
IC50 [2]: 13.7 µM
IC50 [3]: 16.6 µM

Source: ChEMBL document CHEMBL3992550, “An epigenetic modifier induces production of (10'S)-verruculide B, an inhibitor of protein tyrosine phosphatases by Phoma sp. nov. LG0217, a fungal endophyte of Parkinsonia microphylla” (Bioorg Med Chem, 2017)
